Reference: US4959361A, “Triazolo(4,3-A)(1,4)benzodiazepines and thieno (3,2-F)(1,2,4)triazolo(4,3-A)(1,4)diazepine compounds which have useful activity as platelet activating factor (PAF) antagonists” (Hoffmann-La Roche Inc., priority 1988, dated 1990)
Where two headings read alike, the source gives them in different places.

How the values were obtained:
[1] = tested on: PAF Induced Bronchoconstriction; assay: PAF induced bronchoconstriction assay, oral testing; format: in vivo, guinea pig; conditions: Cavia porcellus, 2 hr; for inhibition in vivo at 3 mg/kg: Table II (*), 3 mg/kg p.o.; for ED50: p.o., read-out: Bronchoconstriction ID-50 p.o. 2 hr
[2] = target: T1, PAF-binding, dog platelets (Canis lupus familiaris, UniProt A0A8I3NSH0); assay: PAF binding assay (radiolabelled H-PAF, washed dog platelets); conditions: 10 minutes at room temperature, read-out: PAF-binding IC-50
T1 construct: dog platelets; from tissue; host or cells: washed platelets from citrated dog blood
T1 sequence (A0A8I3NSH0 1-343): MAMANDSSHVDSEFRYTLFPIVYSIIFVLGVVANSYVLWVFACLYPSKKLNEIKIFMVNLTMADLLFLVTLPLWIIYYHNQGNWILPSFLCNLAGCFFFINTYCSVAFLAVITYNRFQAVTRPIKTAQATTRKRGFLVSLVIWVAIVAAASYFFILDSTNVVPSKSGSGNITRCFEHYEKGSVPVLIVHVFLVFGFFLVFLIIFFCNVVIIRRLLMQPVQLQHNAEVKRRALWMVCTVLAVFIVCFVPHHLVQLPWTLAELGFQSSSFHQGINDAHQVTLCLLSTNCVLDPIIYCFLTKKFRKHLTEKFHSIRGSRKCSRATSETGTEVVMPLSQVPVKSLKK
Method: The binding assay was done in […] polyethylene microcentrifuge tubes (Beckman) containing 50 μl of an oil mixture of 2 parts Siliconol AR200 (Serva): 1 part Silicone Fluid (Arthur H. Thoma). Buffer, standards, or analogs (150 μl total volume) were added to the tubes. Radiolabelled H-PAF (50 μl) was then added to the tubes. The reaction was started by the addition of 50 μl of dog platelets (2×10^7 platelets). The tubes were capped, inverted several times to mix, and incubated for 10 minutes at room temperature. The platelets were separated from the incubation mixture by centrifuging 1 minute in a Beckman Microfuge B centrifuge. The tip of the microfuge tube was cut off, and the platelets were washed out of the tip with 200 μl of 50% methanol (Burdick and Jackson). Aquasol (NEN, 10 ml) was added and the radioactivity in the samples was determined using an LS 8100 Beckman liquid scintillation counter linked to a Techtran tape recorder Data was processed through an in-house computer system. Alternatively, radioactivity was determined using a Searle Mark III liquid scintillation counter linked to a Iso-Data microprocessor.
(b) preparation of platelets
Blood was collected from anesthesized or unanesthesized dogs into 50 ml plastic centrifuge tubes containing 3.8% sodium citrate as the anticoagulant (1 volume of citrate/9 volumes of blood). The red cells were removed by centrifugation for 15 minutes at 600 rpm (100-125 g) at room temperature. An aliquot of the supernatant platelet rich plasma (PRP) was saved for cell counting and the remainder was acidified to pH 6.5 with 0.15M citric acid. The platelet pellet was obtained after a 10 minute centrifugation at 2000 rpm (1000 g) at room temperature. Washed platelets were prepared by resuspending the platelet pellet once with pBS containing 1 mM EDTA, centrifuging as noted, and then resuspending the platelets in 0.1% BSA pBS. An aliquot of the washed platelets was counted. Platelets used for binding assays were diluted to 2×10^7 platelets/assay tube (4×10^8 platelets/ml). platelet countinq was done using a Royco Cell-Crit 921.

[3] = tested on: PAF Induced Bronchoconstriction; assay: PAF induced bronchoconstriction assay, intravenous testing; format: in vivo, guinea pig; conditions: Cavia porcellus, iv, 1 min, i.v., 1 minute pretreatment, PAF 1 μg/kg i.v., read-out: Bronchoconstriction ID-50 i.v.
Method: Male animals (Hartlet Strain, 400-500 g were anesthetized with urethane (2 g/kg, i.p.). Each animals' trachea was cannulated and the guinea pigs were respirated using a Harvard small animal rodent respirator (3.0 cc stroke volume, 40 breaths per min.). Tracheal pressure was recorded from a cannula inserted in the trachea and connected to a Statham pressure transducer.
The jugular vein was cannulated for administering compounds. Spontaneous breathing was arrested with succinylcholine (1.2 mg/kg, i.v.) administered 2 minutes prior to intravenous injection of platelet activating factor PAF).
For the intravenous testing, the guinea pig is given a 1-minute pretreatment with propranolol at a dose of 0.1 mg/kg intravenously. The test compound is administered with a 1 minute pretreatment prior to intravenous challenge with PAF. The animal is then challenged with a 1 μg/kg intravenous dose of PAF and the change in tracheal pressure is measured.
The change in tracheal pressure is determined by subtracting the steady state baseline achieved after administration of succinylcholine from the peak broncho. constriction seen after challenge with PAF. The mean is calculated for each test compound and compared to the mean of the control animals to give the percent inhibition of bronchoconstriction. The standard error is calculated as the standard error of the mean.

[4] = Table II (**), at an oral dose of 0.3 mg/kg
[5] = Table II, triazolobenzodiazepines
[6] = Table I, triazolothienodiazepines
[7] = po, Table I, at a dose of 0.3 mg/kg p.o.

**Q.** How did the inhibition in vivo at 0.3 mg/kg [1, 4] turn out when Cc1nnc2n1-c1ccc(C#CCCN3C(=O)c4ccccc4C3=O)cc1C(c1ccccc1F)=NC2 was run?
**A.** 54%

**Q.** How did the IC50 [2, 5] turn out when Cc1nnc2n1-c1ccc(C#CCn3cnc4ccccc4c3=O)cc1C(c1ccccc1F)=NC2 was run?
**A.** 70 nM

**Q.** Which inhibition in vivo at 3 mg/kg ([1]; po) does the source give for Cc1nnc2n1-c1ccc(C#CCN3C(=O)c4cccc5cccc(c45)C3=O)cc1C(c1ccccc1Cl)=NC2 here?
**A.** 99%

**Q.** Which results are given for Cc1nnc2n1-c1ccc(C#CCOc3cccnc3)cc1C(c1ccccc1Cl)=NC2?
**A.** IC50 [2, 5]: 130 nM; ED50 ([3]; Table II): 0.005 mg/kg

**Q.** Which inhibition in vivo at 3 mg/kg ([1]; po) does the source give for Cc1nnc2n1-c1ccc(C#CCN3C(=O)C4CCCN4C3=O)cc1C(c1ccccc1F)=NC2 (centres unmarked) here?
**A.** 99%

**Q.** What about the IC50 [2, 5] of the same compound?
**A.** 200 nM

**Q.** With Cc1nnc2n1-c1ccc(C#CCn3ccc4ccccc43)cc1C(c1ccccc1F)=NC2 as the compound, how does the ED50 ([1]; po, Table II) read?
**A.** > 0.3 mg/kg

**Q.** How did the IC50 [2, 5] turn out when Cc1nnc2n1-c1ccc(C#CCN3C(=O)c4ccccc4S3(=O)=O)cc1C(c1ccccc1F)=NC2 was run?
**A.** 150 nM

**Q.** For Cc1nnc2n1-c1ccc(C#CCn3nc4ccccn4c3=O)cc1C(c1ccccc1F)=NC2, which inhibition in vivo at 3 mg/kg ([1]; po) is on record?
**A.** 43%

**Q.** And the IC50 [2, 5]?
**A.** 350 nM

**Q.** Which IC50 [2, 5] does the source give for Cc1nnc2n1-c1ccc(C#CCn3cnc4ccccc43)cc1C(c1ccccc1Cl)=NC2 here?
**A.** 15 nM

**Q.** For Cc1nnc2n1-c1sc(C#C[Si](C)(C)C)cc1C(c1ccccc1Cl)=NC2, which IC50 [2, 6] is on record?
**A.** 20 nM

**Q.** What about the ED50 ([3]; Table I) of the same compound?
**A.** 0.28 mg/kg

**Q.** Which results are given for Cc1nnc2n1-c1sc(C#CCn3cnc4ccccc43)cc1C(c1ccccc1Cl)=NC2?
**A.** ED50 ([1]; po, Table I): 0.12 mg/kg; IC50 [2, 6]: 4.5 nM

**Q.** What does the source list for Cc1nnc2n1-c1sc(C#CCN3C(=O)c4ccccc4S3(=O)=O)cc1C(c1ccccc1Cl)=NC2?
**A.** inhibition in vivo at 0.3 mg/kg [1, 7]: 27%; IC50 [2, 6]: 4 nM

**Q.** For Cc1nnc2n1-c1sc(C#CCn3c(=O)c4ccccc4c4ccccc43)cc1C(c1ccccc1Cl)=NC2O (centres unmarked), which IC50 [2, 6] is on record?
**A.** 25 nM

**Q.** And the ED50 ([3]; Table I)?
**A.** 0.022 mg/kg

**Q.** How did the ED50 ([3]; Table I) turn out when Cc1nnc2n1-c1sc(C#CCn3c(=O)c4cc(Cl)ccc4c4ccc(Cl)cc43)cc1C(c1ccccc1Cl)=NC2 was run?
**A.** 0.008 mg/kg

**Q.** For Cc1nnc2n1-c1ccc(C#CCn3ncc4ccccc43)cc1C(c1ccccc1F)=NC2, which IC50 [2, 5] is on record?
**A.** < 10 nM

**Q.** For Cc1nnc2n1-c1sc(C#CCN3C(=O)Cc4ccccc43)cc1C(c1ccccc1Cl)=NC2, which ED50 ([1]; po, Table I) is on record?
**A.** 0.05 mg/kg

**Q.** And the IC50 [2, 6]?
**A.** 3 nM

**Q.** With Cc1nnc2n1-c1ccc(C#CCN3C(=O)Cc4ccccc43)cc1C(c1ccccc1F)=NC2 as the compound, how does the inhibition in vivo at 0.3 mg/kg [1, 4] read?
**A.** 32%

**Q.** What about the IC50 [2, 5] of the same compound?
**A.** < 10 nM

**Q.** How did the inhibition in vivo at 3 mg/kg ([1]; po) turn out when Cc1nnc2n1-c1ccc(C#CCN3C(=O)C4CC=CCC4C3=O)cc1C(c1ccccc1F)=NC2 (centres unmarked) was run?
**A.** 99%

**Q.** What about the IC50 [2, 5] of the same compound?
**A.** 50 nM

**Q.** Cc1nnc2n1-c1ccc(C#CCn3c(=O)oc4ccccc43)cc1C(c1ccccc1Cl)=NC2 was tested. Which inhibition in vivo at 3 mg/kg ([1]; po) did it give?
**A.** 91%

**Q.** And the IC50 [2, 5]?
**A.** 20 nM

**Q.** With Cc1c(C)c2c(c(C)c1O)CCC(C)(C#Cc1cc3c(s1)-n1c(C)nnc1CN=C3c1ccccc1Cl)O2 (centres unmarked) as the compound, how does the IC50 [2, 6] read?
**A.** 45 nM

**Q.** What about the ED50 ([3]; Table I) of the same compound?
**A.** 0.027 mg/kg

**Q.** How did the IC50 [2, 5] turn out when Cc1nnc2n1-c1ccc(C#CCN3C(=O)Cc4ccccc43)cc1C(c1ccccc1Cl)=NC2 was run?
**A.** < 10 nM

**Q.** With Cc1nnc2n1-c1ccc(C#CCN3Cc4ccccc4C3=O)cc1C(c1ccccc1F)=NC2 as the compound, how does the inhibition in vivo at 3 mg/kg ([1]; po) read?
**A.** 100%

**Q.** What about the IC50 [2, 5] of the same compound?
**A.** 225 nM

**Q.** For Cc1nnc2n1-c1ccc(C#CCN3C(=O)CCc4ccccc43)cc1C(c1ccccc1F)=N[C@H]2C, which IC50 [2, 5] is on record?
**A.** 6 nM

**Q.** What about the ED50 ([3]; Table II) of the same compound?
**A.** 0.008 mg/kg

**Q.** With Cc1nnc2n1-c1ccc(C#CCn3c(C)nc4ccccc4c3=O)cc1C(c1ccccc1F)=NC2 as the compound, how does the IC50 [2, 5] read?
**A.** 50 nM

**Q.** Which ED50 ([3]; Table I) does the source give for Cc1nnc2n1-c1sc(C#CCn3c4ccccc4c(=O)c4ccccc43)cc1C(c1ccccc1Cl)=NC2 here?
**A.** 0.01 mg/kg

**Q.** Which ED50 ([1]; po, Table II) does the source give for Cc1nnc2n1-c1ccc(C#CCn3c(=O)c4c(ncn4C)n(C)c3=O)cc1C(c1ccccc1F)=NC2 here?
**A.** > 0.3 mg/kg

**Q.** For Cc1nnc2n1-c1sc(C#CCn3nc4ccccn4c3=O)cc1C(c1ccccc1Cl)=NC2, which inhibition in vivo at 0.3 mg/kg [1, 7] is on record?
**A.** 79%

**Q.** And the IC50 [2, 6]?
**A.** 11 nM

**Q.** How did the inhibition in vivo at 0.3 mg/kg [1, 4] turn out when Cc1nnc2n1-c1ccc(C#CCOc3ccccc3)cc1C(c1ccccc1Cl)=NC2 was run?
**A.** 37%

**Q.** And the IC50 [2, 5]?
**A.** < 10 nM

**Q.** How did the IC50 [2, 6] turn out when Cc1nnc2n1-c1sc(C#CCn3c(=O)c4ccccc4c4ccccc43)cc1C(c1ccccc1Cl)=[N+]([O-])C2 was run?
**A.** 15 nM

**Q.** What about the ED50 ([3]; Table I) of the same compound?
**A.** 0.017 mg/kg

**Q.** Which IC50 [2, 5] does the source give for Cc1nnc2n1-c1ccc(C#CCN3C(=O)CN(C)C(=O)c4ccccc43)cc1C(c1ccccc1F)=NC2 here?
**A.** 160 nM
